# In patent US8299021B2, “Macrocyclic inhibitors of hepatitis C virus replication” (InterMune, Inc., priority 2005, dated 2012):
# Molecular target: T1, NS3-NS4 protease (full-length NS3/NS4A-2) (Hepatitis C virus genotype 1a, UniProt P27958)
# T1 construct: Recombinant E. coli or Baculovirus full-length NS3 was diluted to 3.33 μM with assay buffer; made in house; host or cells: E. coli or baculovirus (insect cells)
# Test: NS3-NS4 protease assay / NS3 inhibition assay (RETS1 substrate, fluorescence kinetic read)
# Type: biochemical
# Details: not given
# Method: NS3 complex formation with NS4A-2.
# The appropriate amount of NS4A-2 to 8.3 mM in assay buffer was added to equal the volume of NS3 in step 2.1.1 (conversion factor—3.8 mg/272 μL assay buffer). The material was transferred to an eppendorf tube and place in water bath in 4° C. refrigerator.
# After equilibration to 4° C., equal volumes of NS3 and NS4A-2 solutions were combined in an eppendorf tube, mix gently with a manual pipettor, and incubate mixture for 15 minutes in the 4° C. water bath.
# After 15 minutes at 4° C., the NS3/NS4A-2 eppendorf tube was removed and place it in a room temperature water bath for 10 minutes. NS3/NS4A-2 was alliquoted at appropriate volumes and store at −80° C. (E. coli NS3 run at 2 nM in assay, aliquot at 25 μL. BV NS3 run at 3 nM in assay, aliquot at 30 μL).
# Sample compounds were dissolved to 10 mM in DMSO then diluted to 2.5 mM (1:4) in DMSO.
# The E. coli. […] Using the manual multichannel pipettor, careful not to introduce bubbles into the plate, add 50 μL assay buffer to wells A01-H01 of a black Costar 96-well polypropylene storage plate.
# Using the manual multichannel pipettor, careful not to introduce bubbles into the plate, add 50 μL of diluted NS3/NS4A-2 from step 2.2.6 to wells A02-H12 of plate in step 2.2.7. Using the manual multichannel pipettor, careful not to introduce bubbles into the plate, transfer 25 μL of the wells in drug dilution plate in step 2.2.5 to corresponding wells in assay plate in step 2.2.8. Change tips on multichannel pipettor for each row of compounds transferred. Using the manual multichannel pipettor, careful not to introduce bubbles into the plate, mix the wells from the assay plate in step 2.2.9 by aspirating and dispensing 35 μL of the 75 μL in each well five times. Change tips on multichannel pipettor for each row of wells mixed. Cover plate with a polystyrene plate lid and pre-incubate the plate from step 2.2.10 containing NS3 protease and sample compounds 10 minutes at room temperature. While plate from step 2.2.11 is pre-incubating, dilute RETS1 substrate in a 15 mL polypropylene centrifuge tube.
# After the plate in step is done pre-incubating, and using the manual multichannel, add 25 μL of substrate to all wells on the plate. Quickly mix the plate as in step 2.2.10, mixing 65 μL of the 100 μL in the wells.
# Read the plate in kinetic mode on the Molecular Devices SpectraMax
# IC50s are determined using a four parameter curve fit equation, and converted to Ki's using the following Km's:
# where Ki=IC50/(1+[S]/Km))
# T1 sequence (P27958 1027-1657): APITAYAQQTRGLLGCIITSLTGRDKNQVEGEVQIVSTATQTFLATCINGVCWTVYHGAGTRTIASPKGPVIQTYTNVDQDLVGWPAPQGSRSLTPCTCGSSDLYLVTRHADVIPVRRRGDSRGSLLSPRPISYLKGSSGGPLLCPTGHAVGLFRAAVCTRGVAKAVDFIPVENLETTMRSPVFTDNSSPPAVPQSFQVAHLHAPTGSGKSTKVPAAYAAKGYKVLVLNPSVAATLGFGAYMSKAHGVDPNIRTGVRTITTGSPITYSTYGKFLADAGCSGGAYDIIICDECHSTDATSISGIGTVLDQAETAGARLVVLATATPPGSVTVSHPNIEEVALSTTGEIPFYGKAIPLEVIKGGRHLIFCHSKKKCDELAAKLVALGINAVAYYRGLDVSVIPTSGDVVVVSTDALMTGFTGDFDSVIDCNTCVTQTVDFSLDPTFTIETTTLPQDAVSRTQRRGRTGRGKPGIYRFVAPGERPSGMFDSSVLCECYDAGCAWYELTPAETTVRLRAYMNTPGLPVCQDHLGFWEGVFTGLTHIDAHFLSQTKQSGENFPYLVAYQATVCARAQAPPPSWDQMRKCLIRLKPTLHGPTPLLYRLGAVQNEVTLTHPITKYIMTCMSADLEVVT
row,Structure (SMILES),IC50
1,"O=C(N[C@H]1CCCCC/C=C\[C@@H]2C[C@@]2(C(=O)NS(=O)(=O)C2CC2)NC(=O)[C@@H]2C[C@@H](OC(=O)N3Cc4cccc(F)c4C3)CN2C1=O)C(O)C(F)(F)F (single isomer, unassigned) [Compound 247]",< 0.1 µM

# Same assay, conditions: Table 25; read-out: NS3-NS4 IC50
row,Structure (SMILES),IC50
1,Cc1ccc([S@+]([O-])NC(=O)[C@@]23C[C@H]2/C=C\CCCCC[C@H](NC(=O)OC(C)(C)C)C(=O)N2C[C@H](OC(=O)N4Cc5ccccc5C4)C[C@H]2C(=O)N3)cc1 [Compound 2602],< 10 µM

# Same assay, conditions: read-out: NS3-NS4 IC50
row,Structure (SMILES),IC50
1,CC(C)(C)OC(=O)N[C@H]1CCCCC/C=C\[C@@H]2C[C@@]2(C(=O)NS(=O)(=O)NC2CC2c2ccccc2)NC(=O)[C@@H]2CCCN2C1=O (stereo partly drawn) [Compound 2224],< 10 µM
2,CCc1ccc(NS(=O)(=O)NC(=O)[C@@]23C[C@H]2/C=C\CCCCC[C@H](NC(=O)OC(C)(C)C)C(=O)N2CCC[C@H]2C(=O)N3)cc1 [Compound 2242],< 1 µM
3,CCCS(=O)(=O)NC(=O)[C@@]12C[C@H]1/C=C\CCCCC[C@H](NC(=O)OC(C)(C)C)C(=O)N1CCC[C@H]1C(=O)N2 [Compound 2105],< 1 µM
4,CC(C)(C)OC(=O)NC1CCCCCC=CC2CC2(C(=O)NS(=O)(=O)c2cc(Cl)cc(Cl)c2)NC(=O)C2CCCN2C1=O (stereo not drawn) [Compound 2108],< 10 µM
5,CC(C)(C)OC(=O)NC1CCCCCC=CC2CC2(C(=O)NS(=O)(=O)C(F)(F)F)NC(=O)C2CCCN2C1=O (stereo not drawn) [Compound 2107],< 1 µM
6,CC(C)CNS(=O)(=O)NC(=O)[C@@]12C[C@H]1/C=C\CCCCC[C@H](NC(=O)OC(C)(C)C)C(=O)N1CCC[C@H]1C(=O)N2 [Compound 2218],< 0.1 µM

# System: HCV sub-genomic replicon GS4.3 (HuH-7 hepatoma cells)
# Test: Quantitation by ELISA of neomycin phosphotransferase II (NPTII) in the HCV sub-genomic replicon, GS4.3
# Type: cell-based
# Details: Hepatitis C virus, Huh-7, 72 h, read-out: Replicon EC50
# From the text: Quantitation by ELISA of the Selectable Marker Protein, Neomycin Phosphotransferase II (NPTII) in the HCV Sub-Genomic Replicon, GS4.3
# The HCV sub-genomic replicon (1377/NS3-3′, accession No. AJ242652), stably maintained in HuH-7 hepatoma cells, was created by Lohmann et al. Science 285: 110-113 (1999). The replicon-containing cell culture, designated GS4.3, was obtained from Dr. Christoph Seeger of the Institute for Cancer Research, Fox Chase Cancer Center, Philadelphia, Pa.
# GS4.3 cells were maintained at 37° C., 5% CO2, in DMEM (Gibco 11965-092) supplemented with L-glutamine 200 mM (100×) (Gibco25030-081), non-essential amino acids (NEAA)(Biowhittaker 13-114E), heat-inactivated (HI) Fetal Bovine Serum(FBS)(Hyclone SH3007.03) and […] geneticin (G418)(Gibco 10131-035). Cells were sub-divided 1:3 or 4 every 2-3 days.
# 24 h prior to the assay, GS4.3 cells were collected, counted, and plated in 96-well plates (Costar 3585) at 7500 cells/well in 100 μl standard maintenance medium (above) and incubated in the conditions above. To initiate the assay, culture medium was removed, cells were washed once with PBS (Gibco 10010-023) and 90 μl Assay Medium (DMEM, L-glutamine, NEAA, 10% HI FBS, no G418) was added. Inhibitors were made as a 10× stock in Assay Medium, (3-fold dilutions from 10 μM to […] final concentration, final DMSO concentration 1%), 10 μl were added to duplicate wells, plates were rocked to mix, and incubated as above for 72 h.
# An NPTII Elisa kit was obtained from AGDIA, Inc. (Compound direct ELISA test system for Neomycin Phosphotransferase II, PSP 73000/4800). Manufacturer's instructions were followed, with some modifications. 10×PEB-1 lysis buffer was made up to include 500 μM PMSF (Sigma P7626, 50 mM stock in isopropanol). After 72 h incubation, cells were washed once with PBS and 150 μlPEB-1 with PMSF was added per well. Plates were agitated vigorously for 15 minutes, room temperature, then frozen at −70° C. Plates were thawed, lysates were mixed thoroughly, and 100 μl were applied to an NPTII Elisa plate. A standard curve was made. Lysate from DMSO-treated control cells was pooled, serially diluted with PEB-1 with PMSF, and applied to duplicate wells of the ELISA plate, in a range of initial lysate amount of 150 ul-2.5 ul. In addition, 100 μl buffer alone was applied in duplicate as a blank. Plates were sealed and gently agitated at room temperature for 2 h. Following capture incubation, the plates were washed 5×300 μlwith PBS-T (0.5% Tween-20, PBS-T was supplied in the ELISA kit). For detection, a 1× dilution of enzyme conjugate diluent MRS-2 (5×) was made in PBS-T, into which 1:100 dilutions of enzyme conjugates A and B were added, as per instructions. Plates were resealed, and incubated with agitation, covered, room temperature, for 2 h. The washing was then repeated and 100 μlof room temperature TMB substrate was added. After approximately 30 minutes incubation (room temperature, agitation, covered), the reaction was stopped with 50 μl 3M sulfuric acid. Plates were read at 450 nm on a Molecular Devices Versamax plate reader.
# Inhibitor effect was expressed as a percentage of DMSO-treated control signal, and inhibition curves were calculated using a 4-parameter equation: y=A+4B-A)/(1+((C/x)^13))), where C is half-maximal activity or EC50.
row,Structure (SMILES),EC50
1,CS(=O)(=O)NC(=O)[C@@]12C[C@H]1/C=C\CCCCC[C@H](NC(=O)OC1CCCC1)C(=O)N1C[C@H](OC(=O)N3CCc4ccccc4C3)C[C@H]1C(=O)N2 [Compound 119],< 1 µM
2,Cc1noc(C)c1S(=O)(=O)NC(=O)[C@@]12C[C@H]1/C=C\CCCCC[C@H](NC(=O)OC1CCCC1)C(=O)N1C[C@H](OC(=O)N3CCc4ccccc4C3)C[C@H]1C(=O)N2 [Compound 187],< 1 µM
3,CN(C)c1ccc(S(=O)(=O)NC(=O)[C@@]23C[C@H]2/C=C\CCCCC[C@H](NC(=O)OC2CCCC2)C(=O)N2C[C@H](OC(=O)N4CCc5ccccc5C4)C[C@H]2C(=O)N3)cc1 [Compound 183],< 0.1 µM

# Same assay, conditions: Hepatitis C virus, Huh-7; GS4.3 cells, 72 h; read-out: Replicon EC50
row,Structure (SMILES),EC50
1,CC(C)(C)OC(=O)N[C@H]1CCC(O)CC/C=C\[C@@H]2C[C@@]2(C(=O)NS(=O)(=O)C2CC2)NC(=O)[C@@H]2C[C@@H](OC(=O)N3Cc4cccc(F)c4C3)CN2C1=O (stereo partly drawn) [Compound 1018],< 1 µM
2,O=C1N[C@]2(C(=O)NS(=O)(=O)C3CC3)C[C@H]2/C=C\CCCCC[C@H](Nc2c(N3CCC3)c(=O)c2=O)C(=O)N2CC(OC(=O)N3CCc4ccccc4C3)C[C@@H]12 (stereo partly drawn) [Compound 242],< 10 µM
3,O=C1N[C@]2(C(=O)NS(=O)(=O)C3CC3)C[C@H]2/C=C\CCCCC[C@H](NC(=S)N2CCCC2)C(=O)N2CC(OC(=O)N3Cc4cccc(F)c4C3)C[C@@H]12 (stereo partly drawn) [Compound 244],< 0.1 µM
4,O=C(N[C@H]1CCCCC/C=C\[C@@H]2C[C@@]2(C(=O)NS(=O)(=O)C2CC2)NC(=O)C2C[C@@H](OC(=O)N3Cc4ccncc4C3)CN2C1=O)OC1CCCC1 (stereo partly drawn) [Compound 155],< 1 µM
5,O=C1N[C@]2(C(=O)NS(=O)(=O)C3CC3)C[C@H]2/C=C\CCCCC[C@H](NC(=S)NC2CCCC2)C(=O)N2CC(OC(=O)N3Cc4cccc(F)c4C3)C[C@@H]12 (stereo partly drawn) [Compound 240],< 1 µM
6,Cc1ccccc1S(=O)(=O)NC(=O)[C@@]12C[C@H]1/C=C\CCCCC[C@H](NC(=O)OC(C)(C)C)C(=O)N1C[C@H](OC(=O)N3Cc4cccc(F)c4C3)CC1C(=O)N2 (stereo partly drawn) [Compound 157],< 0.1 µM
7,"CC(C)(C)C(O)C(=O)NC1CCCCCC=CC2CC2(C(=O)NS(=O)(=O)C2CC2)NC(=O)C2CC(OC(=O)N3Cc4cccc(F)c4C3)CN2C1=O (single isomer, unassigned) [Compound 248]",< 1 µM
8,CC(C)(C)OC(=O)N[C@H]1COCCC/C=C\[C@@H]2C[C@@]2(C(=O)NS(=O)(=O)C2CC2)NC(=O)[C@@H]2C[C@@H](OC(=O)N3Cc4cccc(Cl)c4C3)CN2C1=O [Compound 1025],< 0.1 µM
9,O=C1N[C@]2(C(=O)NS(=O)(=O)C3CC3)C[C@H]2/C=C\CCCCC[C@H](NC(=O)N2CCCC2)C(=O)N2CC(OC(=O)N3Cc4cccc(F)c4C3)C[C@@H]12 (stereo partly drawn) [Compound 243],< 0.1 µM
10,O=C(N[C@H]1CCCCC/C=C\[C@@H]2C[C@@]2(C(=O)NC(=O)C2CC2)NC(=O)C2C[C@@H](OC(=O)N3CCc4ccccc4C3)CN2C1=O)OC1CCCC1 (stereo partly drawn) [Compound 706],< 0.1 µM
11,O=C(N[C@@H]1CCCCC/C=C\[C@@H]2C[C@]2(C(=O)NS(=O)(=O)N2CCC(F)(F)C2)NC(=O)C2C[C@H](OC(=O)N3Cc4ccccc4C3)CN2C1=O)OC1CCCC1 (stereo partly drawn) [Compound 227],< 0.1 µM
12,CN(Cc1ccccc1)C(=O)OC1C[C@H]2C(=O)N[C@]3(C(=O)NS(=O)(=O)C4CC4)C[C@H]3/C=C\CCCCC[C@H](NC(=O)OC(C)(C)C)C(=O)N2C1 (stereo partly drawn) [Compound 245],< 1 µM
13,O=C(N[C@H]1CCCCC/C=C\[C@@H]2C[C@@]2(C(=O)O)NC(=O)C2C[C@@H](OC(=O)N3Cc4ccncc4C3)CN2C1=O)OC1CCCC1 (stereo partly drawn) [Compound 146],> 10 µM
14,CC(C)(C)OC(=O)N[C@H]1CCCCC/C=C\[C@@H]2C[C@@]2(C(=O)NS(=O)(=O)C2CC2)NC(=O)C2C[C@@H](OC(=O)N3Cc4c(Cl)ccc(Cl)c4C3)CN2C1=O (stereo partly drawn) [Compound 145],< 0.1 µM
15,C[C@H](NC(=O)O[C@@H]1CC2C(=O)N[C@]3(C(=O)NS(=O)(=O)C4CC4)C[C@H]3/C=C\CCCCC[C@H](NC(=O)OC(C)(C)C)C(=O)N2C1)c1ccc(F)cn1 (stereo partly drawn) [Compound 149],> 10 µM
16,CC(C)(C)OC(=O)N[C@H]1CCCCC/C=C\[C@@H]2C[C@@]2(C(=O)O)NC(=O)C2C[C@@H](OC(=O)N3Cc4c(Cl)ccc(Cl)c4C3)CN2C1=O (stereo partly drawn) [Compound 144],< 10 µM
